{"source": "patent US11780821B2", "about": "“Inhibitors of fibroblast activation protein” (Praxis Biotech LLC, priority 2017, dated 2023)", "key": {"[1]": {"target": "T1, recombinant human FAP (rhFAP) (Homo sapiens, UniProt Q12884)", "T1 construct": "purchased R&D systems 3715-SE-010", "T1 sequence (Q12884 1-760)": "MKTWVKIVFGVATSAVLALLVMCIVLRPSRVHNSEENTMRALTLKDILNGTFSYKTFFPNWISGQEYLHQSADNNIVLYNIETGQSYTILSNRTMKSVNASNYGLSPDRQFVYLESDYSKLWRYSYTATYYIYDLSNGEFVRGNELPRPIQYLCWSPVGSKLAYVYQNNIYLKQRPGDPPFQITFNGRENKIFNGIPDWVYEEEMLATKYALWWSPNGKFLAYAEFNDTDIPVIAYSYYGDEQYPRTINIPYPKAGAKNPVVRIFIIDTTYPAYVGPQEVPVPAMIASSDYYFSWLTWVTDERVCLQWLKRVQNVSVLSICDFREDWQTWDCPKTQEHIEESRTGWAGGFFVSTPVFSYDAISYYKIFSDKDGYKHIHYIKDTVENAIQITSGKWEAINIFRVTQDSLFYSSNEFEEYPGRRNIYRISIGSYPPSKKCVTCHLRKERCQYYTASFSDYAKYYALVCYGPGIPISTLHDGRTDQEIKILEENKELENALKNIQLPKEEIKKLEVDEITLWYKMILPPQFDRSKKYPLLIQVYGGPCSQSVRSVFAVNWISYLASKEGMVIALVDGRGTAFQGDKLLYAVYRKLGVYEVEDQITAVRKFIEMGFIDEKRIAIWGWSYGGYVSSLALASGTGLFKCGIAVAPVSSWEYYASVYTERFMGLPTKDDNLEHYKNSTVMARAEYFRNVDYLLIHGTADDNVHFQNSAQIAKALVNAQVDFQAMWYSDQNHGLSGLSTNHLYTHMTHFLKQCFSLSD", "experiment": "Inhibition of FAP-mediated digestion of FGF21 in vitro", "format": "biochemical", "description": "Recombinant human FGF21 (rhFGF21; Cat. No. #2539-FG-025/CF, R&D systems) was incubated overnight (16 h) at 37° C. with recombinant human FAP (rhFAP; Cat. No. #3715-SE-010, R&D systems) in digestion buffer (50 mM Tris pH 7.4, 100 mM NaCl, 0.1 mg/ml bovine serum albumin). Reactions were carried out at final concentrations of 1000 ng/mL hFGF21 and 400, 800 or 1200 ng/mL rhFAP in a volume of 100 μL. For SDS-PAGE analysis, after incubation each sample received immediately 4× Laemmli protein sample buffer (Cat. No. #161-0747, Bio-Rad) supplemented with 0.1 ml […]/10 ml aliquot and then boiled at 95° C. during 10 min. An aliquot of 15 μL of each sample were then loaded onto a reducing 20% Tris-Tricine SDS-PAGE gel. For immunoblot analysis, proteins were separated on SDS-PAGE gels and transferred to PVDF membranes (Cat. No. #1620177, Bio-Rad). […] Proteins were detected using the ECL Western Blotting Substrate (Cat. No. #32106, Thermo Fisher Scientific) and visualized using a ChemiDoc™ Imaging System (Biorad) and Image lab software v5.2.1 build 11. […]\nAdditionally, the IC50 for FAP-mediated proteolytic cleavage of FGF21, was determined in the using a serial dilution of compound 13 (an exemplary compound)."}, "[2]": {"experiment": "PK study in hamsters (IV and PO)", "format": "in vivo", "conditions": "male, Golden Syrian, plasma, hamster", "description": "To assess the effect of FAP inhibition by an exemplary compound over the cleavage of endogenously produced FGF21, in vivo PK/PD studies were conducted in male Golden Syrian hamsters following single intravenous and oral administration of an exemplary compound. Compound 13 (an exemplary compound) was formulated in dimethyl sulfoxide (DMSO)/Solutol® HS 15 (BASF, Germany)/phosphate buffered saline (PBS, Sigma, USA) (5/5/90, v/v/v) at 0.2 mg/mL for IV injection and polyethylene glycol (PEG) 200 (Sigma, USA)/water for injection (WFI; Tai-Yu, Taiwan) (50/50, v/v) at 1 mg/mL for PO administration. The dosing volumes were 5 mL/kg for IV and 10 mL/kg for PO. Hamsters from Group 1 received an intravenous bolus via jugular vein of 1 mg/kg of compound 13 (an exemplary compound). On the other hand, hamsters from Group 2 received an intragastric bolus of 10 mg/kg of compound 13 (an exemplary compound) using feeding needles. Plasma samples were collected at 5, 10, 15, 30, 60, 120, 240, 360, 480 and 1440 minutes post-dose in both IV and PO groups. Hamsters from group 3 were not dosed and were used to collect samples of zero time point and baseline levels of FAP activity and endogenous FGF21. […]"}}}
{"smiles": "N#C[C@@H]1CC(F)(F)CN1C(=O)CNC(=O)c1ccncc1-c1ccccc1", "note": "[Compound 13, (S)—N-(2-(2-cyano-4,4-difluoropyrrolidin-1-yl)-2-oxoethyl)-3-phenylisonicotinamide]", "values": [{"measurement": "inhibition of proteolytic processing of rhFGF21 by rhFAP (intact rhFGF21, Western blot)", "setting": "[1]; 100 and 1000 nM, 16 h at 37° C.", "result": "intact form of rhFGF21 is preserved"}, {"measurement": "IC50 for FAP-mediated proteolytic cleavage of FGF21", "setting": "[1]; serial dilution, densitometry", "result": "nanomolar range"}, {"measurement": "AUC(0-t)", "setting": "[2]; intravenous 1 mg/kg", "result": 255, "unit": "ng·h/mL"}, {"measurement": "AUC(0-t)", "setting": "[2]; oral 10 mg/kg", "result": 350, "unit": "ng·h/mL"}]}
